Assay results taken from US20200172631A1, “ERBB2/HER2 MUTATIONS IN THE TRANSMEMBRANE OR JUXTAMEMBRANE DOMAIN” (GENENTECH, INC., priority 2017, published 2020).

Test system: TM/JM Her2 mutants expressed in BaF3 cells
Assay: BaF3 cell viability assay, all Her2 TM/JM mutants tested
Type: cell-based, human
Conditions: BaF3 system, all Her2 TM/JM mutants tested (FIG. 7)
Method: BaF3 cells were maintained in RPMI 1640 supplemented with 10% (v/v) fetal bovine serum (Thermo Fisher Scientific, IL), 2 mM L-glutamine, 100 U/ml penicillin, 100 mg/ml streptomycin (complete RPMI) and 2 ng/mL mouse IL-3.
BaF3 cells were cultured in complete RPMI media supplemented with recombinant murine IL-3 (mIL-3) and puromycin (1 μg/ml).
BaF3 cells survival assay was performed as described previously (Jaiswal et al., 2011). Briefly, stable cells expressing Her2 WT or mutants were washed twice times with 1× PBS and plated in 96-well plates (10,000 cells/well) in replicates of 12 in complete RPMI medium without IL-3. Cell viability was measured using the Cell Titer Glo Luminescence Cell Viability Kit (Promega, CA), and plates were read on a Synergy 2 (Biotek Instruments) luminescence plate reader. Relative survival reported was calculated as a ratio of relative luciferase activity (RLU) at day 4 over RLU measured at the day 0. The mutant Her2 constructs were tested in BaF3 either alone or in the presence of WT Flag tagged Her2 as indicated.
Viable cell number was assessed 4 days after treatment using Cell Titer-Glo Luminescent cell viability assay kit (Promega, WI). Non-linear regression plot of antibodies and their fractions or inhibitors were generated and calculation of IC50 was performed using GraphPad Prism 5.00 (GraphPad Software, CA). […]

CS(=O)(=O)CCNCc1ccc(-c2ccc3ncnc(Nc4ccc(OCc5cccc(F)c5)c(Cl)c4)c3c2)o1 [lapatinib]
response of Her2 TM/JM mutants to ERBB2 kinase inhibitory small molecule drugs, effect on cell survival: respond

CCOc1cc2ncc(C#N)c(Nc3ccc(OCc4ccccn4)c(Cl)c3)c2cc1NC(=O)/C=C/CN(C)C [neratinib]
response of Her2 TM/JM mutants to ERBB2 kinase inhibitory small molecule drugs, effect on cell survival: respond
